Measured values as given in patent publication US20050203175A1, “Parenteral composition of paracetamol” (priority 2001, published 2005).

Experiments:
[1] = cited from earlier work
[2] = Solubility in water and organic solvents; type: physicochemical
Description: Paracetamol is soluble in Methanol, Ethanol, DMF, Ethylene chlorine, Benzyl ethanol and other organic solvents, but none of them can be used alone or in a mixture, because of their toxicity.

liver cytochrome P-450 = conditions: in vivo; cited from earlier work
[3] = cited from earlier work; remark: listed apart in the source

solubility in organic solvents ([2]; Methanol, Ethanol, DMF, Ethylene chlorine, Benzyl ethanol and other organic solvents): soluble
solubility in water ([2]; water): practically insoluble
Structure (SMILES): CC(=O)Nc1ccc(O)cc1 [Paracetamol]
excreted through urines as conjugated derivative of glucouronic acid ([1]; glucouronic acid conjugate): 60%
excreted through urines as conjugated derivative of sulfuric acid ([1]; sulfuric acid conjugate): 35%
excreted through urines as conjugated derivatives ([1]; total of sulfuric and glucouronic acid conjugates): 95%
excreted unchangeable ([1]; unchanged drug): 2%
part oxidized by the liver cytochrome P-450 to a toxic intermediate metabolite (liver cytochrome P-450): approx. 3%
absorption when intramuscularly administered ([3]; intramuscular, blood level similar to that after oral administration): well absorbed
loss of the drug observed after oral administration ([3]; oral administration, does not exist with injectable Paracetamol): 20%
